From patent publication US20120316192A1, “SUBSTITUTED INDOLO [2,3-A] QUINOLIZINES” (priority 2011, published 2012)

Columns and labels:
HCT116 cells = assay: Apo-ONE homogeneous caspase-3/7 assay (apoptosis); type: cell-based, human; settings: HCT116, 42 h of treatment
Procedure: (§1) HeLa human cervical carcinoma cell line, the human breast cancer cell line MCF7, the African green monkey kidney cell line BS-C-1 and the human colorectal carcinoma cell lines HCT116 and SW480 were maintained in Dulbecco's Modified Eagle's medium (DMEM, PAA, Pasching Austria). The colorectal cell line HT29 was cultured in McCoy's 5A medium (PAA, Pasching, Austria). The prostate carcinoma cells PC3 and the osteosarcoma cells Saos2 were cultured in RPMI medium (PAA, Pasching Austria). All media were supplemented with 10% fetal calf serum, L-glutamine, penicillin and streptomycin. All cell lines were maintained at 37° C. in a 5% CO2 humidified atmosphere.
(§2) Therefore we measured the caspase-3/7 activity in different cell lines with the Apo-ONE® homogeneous caspase-3/7 assay.
(§3) Caspase-3/7 activities were determined using the Apo-ONE® homogeneous caspase-3/7 assay (Promega, Mannheim Germany) according to the manufacturer's protocol. Briefly, cells were plated in quadruplicates in 384-well cell culture plate. After 24 hours cells were exposed for 42 hours to the compounds at different concentrations. Control cells were treated with 0.5% DMSO or staurosporine (STS). Subsequently cells were lysed with a lysis buffer containing the caspase-3/7 substrate Z-DEVD-R110 and were incubated at room temperature until further analysis. The fluorescence was detected with the TECAN Inifinite® M200 plate reader at excitation/emission wavelength 485/520 nm. The blank value was subtracted from each value and the relative caspase-3/7 activity was calculated compared to the DMSO treated cells.
(§4) These findings correlate with our results from the cell viability assays for these indoloquinolizine.

HeLa cells [1] = assay: Apo-ONE homogeneous caspase-3/7 assay (apoptosis); type: cell-based, human; settings: 42 h of treatment
Procedure: as §1, §2, §3, §4

HeLa cells [2] = assay: FACS analysis of the cell cycle (propidium iodide DNA content); type: cell-based, human; settings: for cells in G1 phase / cells in G2/M phase: 24 h after treatment; for mitotic index: DMSO control 0.16
Procedure: HeLa human cervical carcinoma cell line, the human breast cancer cell line MCF7, and the human colorectal carcinoma cell line SW480 were maintained in Dulbecco's Modified Eagle's medium (DMEM, PAA, Pasching Austria). The colorectal cell line HT29 was cultured in McCoy's 5A medium (PAA, Pasching, Austria). DMEM medium was supplemented with 10% fetal calf serum, sodium pyruvate, non-essential amino acids, penicillin and streptomycin, McCoy's 5A medium was supplemented with 10% fetal calf serum, penicillin and streptomycin. All cell lines were cultured at 37° C. in a 5% CO2 humidified atmosphere. Further, fluorescent activated cell sorting (FACS) was used successfully to analyze the cell cycle and mitotic arrest under the influence of indoloquinolizines. HeLa cells were fixed and stained for FACS analysis 24 h after compound treatment. Cells were trypsinized and combined with any floating cells, pelleted, and resuspended in 1 ml PBS. Ice cold ethanol (70%) was added, and samples were incubated at −20° C. until analysis. After fixation the cells were pelleted, resuspended in 500 μl staining solution (50 μg/ml propidium iodide, 0.1 mg/ml RNase A, 0.05% Triton X-100) and incubated for 40 min at 37° C. 3 ml PBS were added; the cells were pelleted again and resuspended in 500 μl PBS. The DNA content was measured with a Becton Dickinson LSRII and analyzed with FlowJo 7.5 software. The cell cycle of compound treated HeLa cells was analyzed by fluorescence activated cell sorting (FIG. 1). […] A similar distribution is given in (−)-1-01 treated cells (FIGS. 1c and 1d); here 9% are in G1 and 38% in G2/M phase (25 μM) respectively; 8% in G1 and 40% in G2/M phase (50 μM). This means that the mitotic index is increased by more than two fold (from 0.16 to 0.38 respectively 0.40), indicating a mitotic arrest after compound treatment.

all cell lines but Saos2 = assay: Apo-ONE homogeneous caspase-3/7 assay (apoptosis), summary statement; type: cell-based; settings: all cell lines but Saos2, 42 h
Procedure: as §1, §2, §3, §4

HeLa cells [3] = assay: WST-1 cell viability and proliferation assay; type: cell-based, human; settings: 19 h; for cell proliferation rate (percent of DMSO control): 50 μM; for IC50: calculated from two and three experiments respectively
Procedure: as §1
(§5) The cell proliferation was determined as a function of the metabolic activity by means of the cell proliferation reagent WST-1 (Roche, Mannheim Germany). Cells were plated in quadruplicates into the wells of 96 well plates and were allowed to attach for 24 hours. Cells were then treated with different concentrations of the compounds for 19 hours. All samples contained 0.5% DMSO. Control cells were treated with 0.5% DMSO or 20 μM doxorubicin or 1 μM staurosporine. After the treatment the WST-1 reagent was added to the cells according to the manufacturer's protocol. The absorbance was measured with the TECAN Inifinite® M200 plate reader at 450/690 nm. The blank value was subtracted from each value and the percentage of viable cells was determined compared to the DMSO treated cells.
(§6) The biological activity of the indoloquinolizines was evaluated in different cell lines by means of WST-1 assay. Cells were treated with different compound concentrations (3.125 up to 50 μM) for 19 h. In HeLa cells the (−)-enantiomers of 1-01 and 1-04 caused the most dramatic decrease in cell proliferation rate with increasing concentrations (FIG. 3). At 50 μM concentration (−)-1-01 reduced the cell proliferation rate to 60% and (−)-1-04 to 67% (FIG. 3).

[4] = test system: colorectal cell line HT29; assay: WST-1 cell viability and proliferation assay; type: cell-based; settings: HT29, 3.125 up to 50 μM, 19 h
Procedure: as §1, §5, §6

osteosarcoma cells Saos2 = assay: WST-1 cell viability and proliferation assay; type: cell-based; settings: Saos2, 3.125 up to 50 μM, 19 h
Procedure: as §1, §5, §6

[5] = test system: prostate carcinoma cells PC3; assay: WST-1 cell viability and proliferation assay; type: cell-based; settings: PC3, 3.125 up to 50 μM, 19 h
Procedure: as §1, §5, §6

HT29 cell line = assay: Apo-ONE homogeneous caspase-3/7 assay (apoptosis); type: cell-based; settings: HT29, 42 h of treatment
Procedure: as §1, §2, §3, §4

Saos2 cells = assay: Apo-ONE homogeneous caspase-3/7 assay (apoptosis); type: cell-based; settings: Saos2, 42 h of treatment
Procedure: as §1, §2, §3, §4

PC3 cell line = assay: Apo-ONE homogeneous caspase-3/7 assay (apoptosis); type: cell-based; settings: PC3, 42 h of treatment
Procedure: as §1, §2, §3, §4

| Compound | activation of caspase-3/7 (HCT116 cells) | activation of caspase-3/7 (HeLa cells [1]) | cells in G1 phase (HeLa cells [2]; 25 μM) | cells in G2/M phase (HeLa cells [2]; 25 μM) | mitotic index (HeLa cells [2]; 25 μM) | cells in G1 phase (HeLa cells [2]; 50 μM) | cells in G2/M phase (HeLa cells [2]; 50 μM) | mitotic index (HeLa cells [2]; 50 μM) | impact on the apoptosis (all cell lines but Saos2) | cell proliferation rate (percent of DMSO control) (HeLa cells [3]) | IC50 (HeLa cells [3]) | reduction in cell viability [4] | decrease in the proliferation rate compared with HeLa (osteosarcoma cells Saos2) | reduction in cell viability [5] | caspase-3/7 activity detected (HT29 cell line) | activation of caspase-3/7 (Saos2 cells) | caspase-3/7 activity detected (PC3 cell line) | IC50 (HeLa cells [3]; Homo sapiens) |
| --- | --- | --- | --- | --- | --- | --- | --- | --- | --- | --- | --- | --- | --- | --- | --- | --- | --- | --- |
| COC(=O)C1=CC(C(=O)c2ccccc2O)=CN2CCc3c([nH]c4ccccc34)C12C(=O)OC (single isomer, unassigned; (-)) [(−)-1-01, Dimethyl-3-(2-hydroxybenzoyl)-6,7,12,12b-tetrahydroindolo[2,3a]quinolizine-1,12b-dicarboxylate] | concentration dependent increase | concentration dependent increase | 9% | 38% | 0.38 | 8% | 40% | 0.40 | did not have any impact on the apoptosis | 60% | 28.4 ± 0.61 µM | only a slight reduction in cell viability | more dramatic | only a slight reduction in cell viability | only at the 50 μM concentration | concentration dependent increase | only at the 50 μM concentration |  |
| COC(=O)C1=CC(C(=O)c2ccccc2O)=CN2CCc3c([nH]c4ccc(OC)cc34)C12C(=O)OC (single isomer, unassigned; (-)) [(−)-1-04, Dimethyl-3-(2-hydroxybenzoyl)-9-methoxy-6,7,12,12b-tetrahydro-indolo[2,3-a]quinolizine-1,12b-dicarboxylate] | concentration dependent increase | concentration dependent increase |  |  |  |  |  |  | did not have any impact on the apoptosis | 67% |  | only a slight reduction in cell viability | more dramatic | only a slight reduction in cell viability | only at the 50 μM concentration | concentration dependent increase | only at the 50 μM concentration | 15.7 ± 1.43 µM |
